# Reference: patent US4446129A, “Method for treatment of arthrosis deformans with elastase” (Eisai Co., Ltd., priority 1982, dated 1984)
# Values joined by “and” are separate entries in the source; they are usually repeats but may differ in a detail not shown here. Equal entries are not always repeated. “Also recorded” adds a separate entry of the source.
# Experiments:
# elastase = details: cited from earlier work
# gonarthralgia = test: Clinical examples: effectiveness against gonarthralgia; type: in vivo, human
# Excerpt: (§1) The subjects included 18 patients (men 6 cases, women 12 cases, ages 57 to 88, average 70.9±8.2 years old) that were diagnosed negative as to rheumatoid arthrosis and were clinically diagnosed as suffering from gonarthrosis deformans. […] The distribution of the duration of gonarthralgia in the patients from the onset thereof was such that six cases fell into each of the periods of (1) three years or shorter, (2) four to five years, and (3) five years or longer.
# (§2) The effectiveness of elastase against gonarthrosis deformans was evaluated by administering capsules containing 1,800 EL.U elastase at a daily dosage of 3 capsules per day to each patient for 8 weeks, and investigating the severity of gonarthralgia before administration, 4 weeks after administration, and 8 weeks after administration.
# (§3) However, these patients had received and continued to receive during the test period antihypertensive agents, agents for improving cerebral circulation and other drugs for the treatment of their underlying diseases. However, the levels of these drugs in the patients' bodies remained unchanged from the day 8 weeks before the start of the test up to the last day of the test. During the tests, no patient received any other antiinflammatory, analgesic or steroid having the possible effect of palliation of arthralgia.
# pregnant mice = test: Teratogenicity, mice; type: in vivo, mouse; details: oral, 750, 7,500 or 75,000 EL. U/kg/day, 6 days
# Excerpt: (§4) Elastase was forcibly orally administered to pregnant mice and rats in the stage of organogenesis at dosages of 750, 7,500 or 75,000 EL. U/kg/day for 6 consecutive days. As a result, death, hindrance to growth and teratogenesis of the embryos were not observed, and there was no effect upon the morphological and functional differentiation of the newborn animals.
# [1] = system: female and male beagle dogs; test: Subacute toxicity, dogs; type: in vivo, dog; details: oral, 900 or 4,500 EL. U/kg/day for 12 weeks
# Excerpt: (§5) Elastase was orally administered to Wistar strain female and male rats at dosages of 750, 7,500 and 37,500 or 75,000 EL. U/kg/day for 4 weeks, and to female and male beagle dogs at dosages of 900 or 4,500 EL. U/kg/day for 12 weeks.
# [2] = system: Wistar strain female and male rats; test: Chronic toxicity, rats; type: in vivo, rat; details: oral, 2,250, 5,700, 11,250 or 22,500 EL. U/kg/day for 24 weeks
# Excerpt: Elastase was orally administered to Wistar strain female and male rats at dosages of 2,250, 5,700, 11,250 or 22,500 EL. U/kg/day for 24 weeks.
# lipoprotein = details: cited from earlier work
# [3] = system: Wistar strain female and male rats; test: Subacute toxicity, rats; type: in vivo, rat; details: oral, 750, 7,500 and 37,500 or 75,000 EL. U/kg/day for 4 weeks
# Excerpt: as §5
# [4] = system: lipid metabolism in the serum and tissues; arterial walls; details: cited from earlier work
# [5] = system: other types of arthralgia; test: Clinical examples: effectiveness against other types of arthralgia and symptoms; type: in vivo, human
# Excerpt: as §1, §2, §3
# pregnant rats = test: Teratogenicity, rats; type: in vivo, rat; details: oral, 750, 7,500 or 75,000 EL. U/kg/day, 6 days
# Excerpt: as §4
# [6] = Absorption, blood concentration and fate of elastase after oral administration; type: in vivo
# human patients = test: Clinical examples: side effects; type: in vivo; details: for resolution of epigastric discomfort: after 4 weeks
# Excerpt: as §1, §2, §3
# [7] = porcine elastase; cited from earlier work
# [8] = duration 3 years or shorter, 4 w
# [9] = duration 3 years or shorter, 8 w
# [10] = duration 5 years or longer, 4 w
# [11] = duration 5 years or longer, 8 w
# [12] = individual patient case (one line per case No. 1-18), 3 capsules of 1,800 EL.U per day
# [13] = individual patient case (Table 2)
molecule,measurement,setting,value
[Cl-].[Na+] [NaCl],inhibition of elastase activity,elastase,inhibited
"elastase: enzyme which specifically decomposes elastin, a water-insoluble scleroprotein; industrially produced by extraction from swine pancreas","""ineffective"" result, number",gonarthralgia; 4 to 5 year group,one
same,"""ineffective"" result, number",gonarthralgia; 5 years or longer group,one
same,result (case history),"gonarthralgia; Case 4, Case 8, Case 16, Case 13",markedly effective; also recorded: ineffective (when there was no effect)
same,pain in knee joints when administration was discontinued,gonarthralgia; Case 9,worsened
same,gonarthralgia after restart of administration,"gonarthralgia; Case 9, restarted at beginning of third week",palliation of gonarthralgia
same,"improvement, case history","gonarthralgia; Case 13, after either 4 weeks or 8 weeks",no improvement was recognized
same,"difficulty with Japanese dancing, case history","gonarthralgia; Case 16, after 4 weeks",disappeared
same,"knee pain, case history","gonarthralgia; after 4 weeks, Case 4, Case 8, Case 16",completely cleared up; also recorded: disappeared entirely
same,gonarthralgia in cases with other symptoms,gonarthralgia; all of these cases,palliated or cleared up
same,"aggravated, number of cases",gonarthralgia; [8],0
same,"effective, number of cases",gonarthralgia; [8],3
same,"ineffective, number of cases",gonarthralgia; [8],0
same,"markedly effective, number of cases",gonarthralgia; [8],3
same,rate of effectiveness,gonarthralgia; [8],100%
same,rate of effectiveness (cases/total),gonarthralgia; [8],6/6
same,"aggravated, number of cases",gonarthralgia; [9],0
same,"effective, number of cases",gonarthralgia; [9],3
same,"ineffective, number of cases",gonarthralgia; [9],0
same,"markedly effective, number of cases",gonarthralgia; [9],3
same,rate of effectiveness,gonarthralgia; [9],100%
same,rate of effectiveness (cases/total),gonarthralgia; [9],6/6
same,"aggravated, number of cases","gonarthralgia; duration 4 to 5 years, 4 w",0
same,"effective, number of cases","gonarthralgia; duration 4 to 5 years, 4 w",3
same,"ineffective, number of cases","gonarthralgia; duration 4 to 5 years, 4 w",1
same,"markedly effective, number of cases","gonarthralgia; duration 4 to 5 years, 4 w",2
same,rate of effectiveness,"gonarthralgia; duration 4 to 5 years, 4 w",83.3%
same,rate of effectiveness (cases/total),"gonarthralgia; duration 4 to 5 years, 4 w",5/6
same,"aggravated, number of cases","gonarthralgia; duration 4 to 5 years, 8 w",0
same,"effective, number of cases","gonarthralgia; duration 4 to 5 years, 8 w",2
same,"ineffective, number of cases","gonarthralgia; duration 4 to 5 years, 8 w",1
same,"markedly effective, number of cases","gonarthralgia; duration 4 to 5 years, 8 w",3
same,rate of effectiveness,"gonarthralgia; duration 4 to 5 years, 8 w",83.3%
same,rate of effectiveness (cases/total),"gonarthralgia; duration 4 to 5 years, 8 w",5/6
same,"aggravated, number of cases",gonarthralgia; [10],0
same,"effective, number of cases",gonarthralgia; [10],4
same,"ineffective, number of cases",gonarthralgia; [10],1
same,"markedly effective, number of cases",gonarthralgia; [10],1
same,rate of effectiveness,gonarthralgia; [10],83.3%
same,rate of effectiveness (cases/total),gonarthralgia; [10],5/6
same,"aggravated, number of cases",gonarthralgia; [11],0
same,"effective, number of cases",gonarthralgia; [11],3
same,"ineffective, number of cases",gonarthralgia; [11],1
same,"markedly effective, number of cases",gonarthralgia; [11],2
same,rate of effectiveness,gonarthralgia; [11],83.3%
same,rate of effectiveness (cases/total),gonarthralgia; [11],5/6
same,"cases with gonarthralgia completely cleared up, number",gonarthralgia; duration greater than 5 years,two
same,overall rate of improvement,gonarthralgia; entire group of 18 patients,88.9%
same,"patients with distinct palliation or complete clearing of gonarthralgia, number",gonarthralgia; entire group of patients,sixteen
same,"results of ""aggravated""",gonarthralgia; entire group of patients,"no results of ""aggravated"""
same,"results of ""ineffective"", number",gonarthralgia; entire group of patients,two
same,Effect on arthralgia after 4 w.,gonarthralgia; [12],+ (effective) and ++ and - (ineffective)
same,Effect on arthralgia after 8 w.,gonarthralgia; [12],+ (effective) and ++ and - (ineffective)
same,persistent gonarthralgia,"gonarthralgia; most of the patients, during term of administration, not informed of relation",considerably palliated or completely cleared up
same,"results of ""markedly effective"", 8 weeks compared with 4 weeks",gonarthralgia; overall,somewhat higher after the 8 week period
same,rate of effectiveness,"gonarthralgia; overall, 4 w",88.9%
same,rate of effectiveness (cases/total),"gonarthralgia; overall, 4 w",16/18
same,"effective, number of cases","gonarthralgia; overall, 4 w, 18 cases",10
same,"markedly effective, number of cases","gonarthralgia; overall, 4 w, 18 cases",6
same,rate of effectiveness (cases/total),"gonarthralgia; overall, 8 w",16/18
same,rate of effectiveness / overall rate of improvement,"gonarthralgia; overall, 8 w",88.9%
same,"rate of ""effective""","gonarthralgia; overall, after 4 weeks",55.6%
same,"rate of ""ineffective""","gonarthralgia; overall, after 4 weeks",11.1%
same,"rate of ""markedly effective""","gonarthralgia; overall, after 4 weeks",33.3%
same,"rate of ""aggravated""","gonarthralgia; overall, after 8 weeks",0%
same,"rate of ""effective""","gonarthralgia; overall, after 8 weeks",44.4% and 44.48%
same,"rate of ""ineffective""","gonarthralgia; overall, after 8 weeks",11.1%
same,"rate of ""markedly effective""","gonarthralgia; overall, after 8 weeks",44.4% and 44.48%
same,onset of perceived palliation or clearing of arthralgia,"gonarthralgia; patients who showed improvement, after start of administration",at the beginning of the second week
same,effect upon morphological and functional differentiation of the newborn animals,pregnant mice,no effect
same,"death, hindrance to growth and teratogenesis of the embryos",pregnant mice; organogenesis,not observed
same,"Subacute toxicity: general physical condition, blood and urinary tests, morphological observations",[1],no noteworthy anomalous findings
same,"Chronic toxicity: general physical condition, blood and urinary tests, morphological observations",[2],no anomalous findings
same,β-lipoproteinase activity and lipoprotein lipase activity,lipoprotein,confirmed
same,"Subacute toxicity: general physical condition, blood and urinary tests, morphological observations",[3],no noteworthy anomalous findings
same,"optimal activation pH, particularly",elastase; N-α-benzoyl-L-alanine methyl ester as substrate,about 8.8
same,optimal activation pH,"elastase; N-α-benzoyl-L-alanine methyl ester as substrate, range",8 to 10
same,"decomposition of N-α-benzoyl-L-alanine methyl ester, acetyl-L-trialanine-p-nitroanilide and elastin",elastase; porcine elastase,specifically decomposing
same,"removal of denatured elastin, formation of fresh elastin, fat deposition, atherosclerosis",[4]; arterial walls,functions to remove denatured elastin from arterial walls and to promote formation of fresh elastin
same,effect on disturbance of lipid metabolism in the serum and tissues,[4]; in vivo,normalizing effect
same,elasticity and dilatability of arterial walls,[4]; in vivo,maintains and promotes
same,morning stiffness in the fingers,"[5]; Case 4, after 4 weeks",cleared up
same,lumbago,"[5]; Case 5, during the term of administration",cleared up
same,cinesalgia in the left shoulder (periarthritis),"[5]; Case 6, during the term of administration",No change
same,anomalies of sensation in fingers,[5]; Cases 10 and 15,not cleared up
same,Miscellaneous,[5]; [13],morning stiffness in hands cleared; also recorded: carpal tunnel syndrome not changed; also recorded: dancing eliminated
same,Miscellaneous: lumbago,[5]; [13],cleared; also recorded: lumbago lasting
same,effect upon morphological and functional differentiation of the newborn animals,pregnant rats,no effect
same,"death, hindrance to growth and teratogenesis of the embryos",pregnant rats; organogenesis,not observed
same,time of maximum concentration of elastase in the blood,[6]; after (oral) administration,6 h
same,combination with blood proteins,[6]; in the blood,combines with α2 -macroglobulin and α1 -antitrypsin
same,area under the blood concentration curve versus dosage,[6]; oral,increases in proportion to the dosage
same,distribution,[6]; oral,distributed widely over all of the body tissues
same,excretion,[6]; oral,excreted into the urine
same,metabolism,[6]; oral,metabolized chiefly in the liver
same,discontinuation of administration in cases with epigastric discomfort,human patients; 3 cases (conclusions),not discontinued in any of these cases
same,"epigastric discomfort, number of cases","human patients; 18 patients, 8 weeks",3
same,"epigastric discomfort, rate","human patients; 18 patients, 8 weeks",16.7%
same,Miscellaneous: discontinuation and restart,human patients; Case 9 (Table 2),administration discontinued after 2 w; also recorded: restarted because of worsened arthralgia
same,resolution of epigastric discomfort,"human patients; Case 9, administration restarted",cleared up after 4 weeks
same,discontinuation of administration because of epigastric discomfort,"human patients; Case 9, at the beginning of the second week",discontinued at the beginning of the second week
same,epigastric discomfort,"human patients; Cases 3, 6 and 9, one to two weeks after administration began",suffered from epigastric discomfort for several days
same,resolution of epigastric discomfort,human patients; Cases 3 and 6,disappeared after 4 weeks
same,"nausea, vomiting, exanthema or the like",human patients; all cases,In none of the cases
same,Side effect (transient epigastric discomfort),human patients; [13],transient
same,isoelectric point,[7],9.5±0.5 pH
N.N.O=S(=O)(O)O [(NH4)2 SO4],inhibition of elastase activity,elastase,inhibited
[Cl-].[K+] [KCl],inhibition of elastase activity,elastase,inhibited
O=S(=O)([O-])[O-].[Cu+2] [CuSO4],inhibition of elastase activity,elastase,inhibited
